Assay results reported in patent US10576062B2, “Carbamoyloxymethyl triazole cyclohexyl acids as LPA antagonists” (Bristol-Myers Squibb Company, priority 2016, dated 2020).

How the values were obtained:
CD-1 female mice = experiment: LPA challenge with plasma histamine evaluation (acute in vivo histamine assay); parameters: species or system mouse; conditions: 3 mg/kg dose; for histamine (change of plasma histamine after LPA challenge): CD-1 mice, p.o. 2 hours prior to LPA challenge
Protocol: LPA Challenge with Plasma Histamine Evaluation.
Compound is dosed orally p.o. 2 hours to CD-1 female mice prior to the LPA challenge. The mice are then dosed via tail vein (IV) with 0.15 mL of LPA in 0.1% BSA/PBS ([…]). Exactly 2 minutes following the LPA challenge, the mice are euthanized by decapitation and the trunk blood is collected. These samples are collectively centrifuged and individual 75 μL samples are frozen at −20° C. until the time of the histamine assay.
The plasma histamine analysis was run by standard EIA (Enzyme Immunoassay) methods. Plasma samples were thawed and diluted 1:30 in 0.1% BSA in PBS. The EIA protocol for histamine analysis as outlined by the manufacturer was followed (Histamine EIA, Oxford Biomedical Research, EA #31).
The LPA used in the assay is formulated as follows: LPA (1-oleoyl-2-hydroxy-sn-glycero-3-phosphate (sodium salt), 857130P, Avanti Polar Lipids) is prepared in 0.1% BSA/PBS for total concentration of 2 μg/μL. 13 mg of LPA is weighed and 6.5 mL 0.1% BSA added, vortexed and sonicated for ˜1 hour until a clear solution is achieved.

nerve-injured mice = conditions: pretreatment; cited from earlier work
human LPA1 = molecular target: T1, human LPA1 (Homo sapiens, UniProt Q92633); experiment: LPA1 functional antagonist assay (LPA-induced calcium flux); assay type: cell-based; conditions: read-out: hLPA1 IC50
T1 construct: expressed in transfected cells; host or cells: Chinese hamster ovary (CHO) cells
T1 sequence (Q92633 whole entry): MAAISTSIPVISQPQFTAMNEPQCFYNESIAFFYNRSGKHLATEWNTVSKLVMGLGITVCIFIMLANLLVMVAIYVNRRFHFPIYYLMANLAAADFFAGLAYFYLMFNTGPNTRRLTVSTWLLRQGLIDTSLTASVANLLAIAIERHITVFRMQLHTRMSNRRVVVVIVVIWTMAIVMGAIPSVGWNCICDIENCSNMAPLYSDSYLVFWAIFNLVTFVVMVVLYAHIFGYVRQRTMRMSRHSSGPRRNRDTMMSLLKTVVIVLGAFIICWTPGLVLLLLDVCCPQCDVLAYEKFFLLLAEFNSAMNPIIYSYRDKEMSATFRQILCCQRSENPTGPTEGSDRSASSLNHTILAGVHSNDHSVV
How it was run: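 CHO cells overexpressing human LPA1, loaded with calcium dye 30 min at 37° C, were preincubated 20 min at room temperature with compound (0.08 nM–5 μM, 0.5% DMSO) in HBSS/20 mM HEPES/0.1% fatty acid-free BSA.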

[1] = tested on: human foetal lung fibroblasts; conditions: cited from earlier work
[2] = tested on: pancreatic cancer cell lines; conditions: cited from earlier work
UUO mice = UUO mice treated with the antagonist; cited from earlier work
[3] = tested on: mouse epithelial renal cell line, MCT; conditions: MCT cells, co-treatment with LPA; cited from earlier work

Cc1nc(-c2nnn(C)c2COC(=O)N(C)C2CCCC2)ccc1O[C@H]1CCC[C@H](C(=O)O)C1 [Example 1, (1S,3S)-3-((6-(5-(((cyclopentyl(methyl)carbamoyl)oxy)methyl)-1-methyl-1H-1,2,3-triazol-4-yl)-2-methylpyridin-3-yl)oxy)cyclohexane-1-carboxylic Acid]
histamine (change of plasma histamine after LPA challenge) (CD-1 female mice): −97%

CN(C(=O)OCc1c(-c2ccc(O[C@H]3CCC[C@H](C(=O)O)C3)cc2)nnn1C)C1CCCC1 [Example 5, (1S,3S)-3-(4-(5-(((Cyclopentyl(methyl)carbamoyl)oxy)methyl)-1-methyl-1H-1,2,3-triazol-4-yl)phenoxy)cyclohexanecarboxylic acid]
histamine (change of plasma histamine after LPA challenge) (CD-1 female mice): −90%

C[C@@H](N)[C@H]1CC[C@H](C(=O)Nc2ccncc2)CC1 [Example Y-27632]
allodynia and hyperalgesia (nerve-injured mice): completely abolished

C[C@H](C1CC1)N(C)C(=O)OCc1c(-c2ccc(O[C@H]3CCC[C@H](C(=O)O)C3)cc2)nnn1C [Example 51, (1S,3S)-3-(4-(5-(((((R)-1-cyclopropylethyl)(methyl)carbamoyl)oxy)methyl)-1-methyl-1H-1,2,3-triazol-4-yl)phenoxy)cyclohexane-1-carboxylic acid]
In vivo acute histamine assay: % histamine (CD-1 female mice): −73% | IC50 (human LPA1): 24 nM

Cc1noc(-c2ccc(CSCCC(=O)O)cc2)c1NC(=O)OC(C)c1ccccc1Cl (centres unmarked) [Ki16425]
chemotaxis of human foetal lung fibroblasts induced by BAL from IPF patients [1]: blocked | LPA-induced and ascites-induced invasion activity ([2]; highly peritoneal metastatic pancreatic cancer cell line): blocked | in vitro migration in response to LPA and peritoneal fluid (ascites) from pancreatic cancer patients ([2]; pancreatic cancer cell lines): effectively blocked | development of renal fibrosis in UUO mice (UUO mice): closely resembled the profile of LPA1 (−/−) mice | LPA-induced increase in expression of CTGF [3]: almost completely suppressed

CCCC1(N(C)C(=O)OCc2c(-c3ccc(O[C@H]4CCC[C@H](C(=O)O)C4)c(C)n3)nnn2C)CCC1 [Example 132, (1S,3S)-3-((2-methyl-6-(1-methyl-5-(((methyl(1-propylcyclobutyl)carbamoyl)oxy)methyl)-1H-1,2,3-triazol-4-yl)pyridin-3-yl)oxy)cyclohexane-1-carboxylic acid]
IC50 (human LPA1): 180 nM
